“And” between values parts separate entries of the source, which are not always exact repeats. Equal entries are not always repeated. Toxic doses and inconclusive results are not listed. How the source made its calls: active means survival T/C of 150% or more; inactive means T/C below 125% in these data.
System: CD2F1 mice, L1210 leukemia ip, survival T/C
Experiment: NCI In Vivo Anticancer Drug Screen. Data for tumor model L1210 Leukemia (intraperitoneal) in CD2F1 (CDF1) mice
Conditions: higher = longer survival
Summary of the method: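 Transplantable tumor in mice; compound-treated vs vehicle-treated groups. Read-out = treated/control ratio of the measured endpoint.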

[1] = endpoint: mean survival time, dose: 100.0 mg/kg/injection, schedule: Q04DX002 (ip), vehicle: saline with Tween-80
[2] = endpoint: mean survival time, dose: 200.0 mg/kg/injection, schedule: Q04DX002 (ip), vehicle: saline with Tween-80
[3] = endpoint: mean survival time, dose: 400.0 mg/kg/injection, schedule: Q04DX002 (ip), vehicle: saline with Tween-80
[4] = endpoint: mean survival time, dose: 50.0 mg/kg/injection, schedule: Q01DX009 (ip), vehicle: saline with Tween-80
[5] = endpoint: mean survival time, dose: 100.0 mg/kg/injection, schedule: Q01DX009 (ip), vehicle: saline with Tween-80
[6] = endpoint: mean survival time, dose: 100.0 mg/kg/injection, schedule: Q04DX003 (ip), vehicle: saline with Tween-80
[7] = endpoint: mean survival time, dose: 200.0 mg/kg/injection, schedule: Q01DX009 (ip), vehicle: saline with Tween-80
[8] = endpoint: mean survival time, dose: 400.0 mg/kg/injection, schedule: Q01DX009 (ip), vehicle: saline with Tween-80
[9] = endpoint: mean survival time, dose: 100.0 mg/kg/injection, schedule: Q01DX001 (ip), vehicle: saline with Tween-80
[10] = endpoint: mean survival time, dose: 200.0 mg/kg/injection, schedule: Q04DX003 (ip), vehicle: saline with Tween-80
[11] = endpoint: mean survival time, dose: 400.0 mg/kg/injection, schedule: Q04DX003 (ip), vehicle: saline with Tween-80

Measured: T/C

CCOC(CCCO)OCC
inactive: [1] 103 % of control | [2] 100 % of control | [3] 103 % of control

CCOC(=O)/C(C#N)=C(\C)c1cccc(C)c1
inactive: endpoint: mean survival time, dose: 25.0 mg/kg/injection, schedule: Q01DX009 (ip), vehicle: saline with Tween-80 102 % of control | [4] 98 % of control | [5] 103 % of control | [6] 105 % of control

COC(=O)C(O)c1ccc2c(c1)OCO2 (stereo unspecified)
inactive: [5] 97 % of control | [7] 90 % of control | [8] 90 % of control

C/C(=C\C(=O)Nc1ccc(S(=O)(=O)F)cc1)c1ccc([N+](=O)[O-])cc1
inactive: endpoint: mean survival time, dose: 25.0 mg/kg/injection, schedule: Q04DX002 (ip), vehicle: saline with Tween-80 103 % of control and 104 % of control | endpoint: mean survival time, dose: 50.0 mg/kg/injection, schedule: Q04DX002 (ip), vehicle: saline with Tween-80 96 % of control and 102 % of control | [9] 97 % of control | [5] 104 % of control and 106 % of control | [1] 100 % of control (2×) and 104 % of control | [6] 104 % of control | endpoint: mean survival time, dose: 200.0 mg/kg/injection, schedule: Q01DX001 (ip), vehicle: saline with Tween-80 92 % of control | [7] 96 % of control | [2] 96 % of control and 102 % of control and 107 % of control | [10] 101 % of control | endpoint: mean survival time, dose: 400.0 mg/kg/injection, schedule: Q01DX001 (ip), vehicle: saline with Tween-80 95 % of control | [8] 96 % of control and 100 % of control | [3] 98 % of control | [11] 93 % of control

CCCCOC(=O)c1ccccc1
inactive: [5] 102 % of control | [7] 104 % of control

CCC1C(C)CNC1C (stereo unspecified)
inactive: [9] 100 % of control

CCC(C)C(C)OC(=O)c1cc([N+](=O)[O-])cc([N+](=O)[O-])c1 (stereo unspecified)
inactive: [5] 105 % of control | [6] 92 % of control | [7] 104 % of control | [10] 97 % of control | [8] 90 % of control | [11] 103 % of control

Cc1cc(N/N=C/c2ccccn2)nc2ccccc12
inactive: endpoint: median survival time, dose: 6.25 mg/kg/injection, schedule: Q01DX009 (ip), vehicle: Klucel (hydroxypropylcellulose) (HPC) 102 % of control | endpoint: median survival time, dose: 12.5 mg/kg/injection, schedule: Q01DX009 (ip), vehicle: Klucel (hydroxypropylcellulose) (HPC) 100 % of control | endpoint: median survival time, dose: 25.0 mg/kg/injection, schedule: Q01DX009 (ip), vehicle: Klucel (hydroxypropylcellulose) (HPC) 97 % of control | endpoint: median survival time, dose: 50.0 mg/kg/injection, schedule: Q01DX009 (ip), vehicle: Klucel (hydroxypropylcellulose) (HPC) 110 % of control

CCn1c(N)c(N)c(=O)[nH]c1=S
inactive: [5] 94 % of control | [7] 98 % of control | [8] 88 % of control

NC1=NN(c2ccccc2)CC1
inactive: endpoint: mean survival time, dose: 5.0 mg/kg/injection, schedule: Q01DX009 (ip), vehicle: saline with Tween-80 96 % of control | endpoint: mean survival time, dose: 5.0 mg/kg/injection, schedule: Q04DX003 (ip), vehicle: saline with Tween-80 94 % of control | endpoint: mean survival time, dose: 10.0 mg/kg/injection, schedule: Q01DX009 (ip), vehicle: saline with Tween-80 96 % of control | endpoint: mean survival time, dose: 10.0 mg/kg/injection, schedule: Q04DX003 (ip), vehicle: saline with Tween-80 91 % of control | endpoint: mean survival time, dose: 20.0 mg/kg/injection, schedule: Q01DX009 (ip), vehicle: saline with Tween-80 106 % of control | endpoint: mean survival time, dose: 20.0 mg/kg/injection, schedule: Q04DX003 (ip), vehicle: saline with Tween-80 86 % of control

CC(CCl)C(C#N)(c1ccccc1)c1ccccc1 (stereo unspecified)
inactive: [4] 92 % of control | [5] 95 % of control | [6] 101 % of control | [7] 95 % of control | [10] 101 % of control

From PubChem BioAssay AID256 (DTP/NCI, 2004)
